Source: US7893077B2, “Bisaryl-sulfonamides” (Amgen Inc., priority 2004, dated 2011)

What follows are compounds tested against T1, PPARγ (Homo sapiens, UniProt P37231) (assay: PPARγ ligand binding assay utilizing [3H]-BRL 49653 as the radioligand (filtration)). Details: concentration required to reduce by 50% the specific binding of [3H]-BRL 49653.
T1 construct: made in house
T1 sequence (P37231 1-505): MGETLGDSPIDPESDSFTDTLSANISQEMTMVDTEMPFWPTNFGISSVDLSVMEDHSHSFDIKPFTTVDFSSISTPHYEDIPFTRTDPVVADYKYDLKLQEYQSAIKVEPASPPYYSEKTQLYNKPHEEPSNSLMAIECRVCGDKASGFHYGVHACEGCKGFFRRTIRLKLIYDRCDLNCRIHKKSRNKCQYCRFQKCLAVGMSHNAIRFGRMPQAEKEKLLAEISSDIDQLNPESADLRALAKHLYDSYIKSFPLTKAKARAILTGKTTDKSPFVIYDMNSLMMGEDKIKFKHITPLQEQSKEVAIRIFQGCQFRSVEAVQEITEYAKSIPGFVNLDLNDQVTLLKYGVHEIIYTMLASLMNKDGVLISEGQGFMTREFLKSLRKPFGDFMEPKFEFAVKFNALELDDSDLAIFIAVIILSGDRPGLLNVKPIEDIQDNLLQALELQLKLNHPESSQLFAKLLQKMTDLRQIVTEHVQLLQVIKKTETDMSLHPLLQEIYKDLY
Excerpt: The compounds of the present invention can be evaluated for modulation of the PPARγ receptor using assays such as those described in Jiang, et al., Nature 391:82-86 (1998), Ricote, et al., Nature 391:79-82 (1998) and Lehmann, et al., J. Biol. Chem. 270(12): 12953-12956 (1995). Alternatively, the compounds can be evaluated for their ability to displace radiolabeled BRL 49653 from a PPARγ-GST fusion protein as follows:
PPARγ-GST fusion protein (prepared according to standard procedures), [^3H]-BRL 49653 having 50 Ci/mmol specific activity, Polyfiltronics Unifilter 350 filtration plate and glutathione-Sepharose® beads (from Pharmacia: washed twice with 10× binding buffer in which BSA and DTI can be left out).
Binding buffer (10 mM Tris-HCl, pH 8.0, 50 mM KCl, 10 mM DTT, 0.02% BSA and 0.0 1% NP-40) is added in 80-μL amounts to the wells of the filtration plate. The test compound is then added in 10 μL of DMSO. The PPARγ-GST fusion protein and radiolabeled BRL compound are premixed in binding buffer containing 10 mM DTT and added in 10-μL amounts to the wells of the plate to provide final concentrations of 1 µg/well of PPARγ-GST fusion protein and 10 nM [^3H]-BRL 49653 compound. The plate is incubated for 15 min. Glutathione-agarose bead is added in 50 μL of binding buffer, and the plate is vigorously shaken for one hour. The plate is washed four times with 200 μL/well of binding buffer (without BSA and DTT). The bottom of the plate is sealed and 200 μL/well of scintillation cocktail is added. The top of the plate is then sealed and the radioactivity is determined.
IC50 values are defined as the concentration of test compounds required to reduce by 50% the specific binding of [^3H]-BRL 49653 and are represented by (+)<30 μM; (++)<10 μM; (+++)<1 μM.

`CCNS(=O)(=O)c1ccc(Sc2ccc(NS(=O)(=O)c3ccc(C(F)(F)F)cc3Cl)nc2C(=O)C2CC2)cc1` [Compound 121, 2-Chloro-N-[6-cyclopropanecarbonyl-5-(4-ethylsulfamoyl-phenylsulfanyl)-pyridin-2-yl]-4-trifluoromethyl-benzenesulfonamide] and `CCC(CC)S(=O)(=O)c1ccc(Sc2ccc(NS(=O)(=O)c3ccc(C(F)(F)F)cc3Cl)nc2C(=O)C2CC2)cc1` [Compound 117, 2-Chloro-N-{6-cyclopropanecarbonyl-5-[4-(pentane-3-sulfonyl)-phenylsulfanyl]-pyridin-2-yl}-4-trifluoromethyl-benzenesulfonamide] cannot be ordered by IC50: less than 1 µM for the first, less than 10 µM for the second.

`CCCC(=O)c1nc(NS(=O)(=O)c2ccc(Cl)cc2Cl)ccc1Sc1ccc(S(=O)(=O)N2CCCC2)cc1` [Compound 94, N-{6-Butyryl-5-[4-(pyrrolidine-1-sulfonyl)-phenylsulfanyl]-pyridin-2-yl}-2,4-dichloro-benzenesulfonamide] and `COC(=O)c1nc(NS(=O)(=O)c2ccc(Cl)cc2Cl)ccc1Sc1ccc(S(=O)(=O)N2CCCCC2)cc1` [Compound 70, 6-(2,4-Dichloro-benzenesulfonylamino)-3-[4-(piperidine-1-sulfonyl)-phenylsulfanyl]-pyridine-2-carboxylic acid methyl ester] cannot be ordered by IC50: less than 1 µM for the first, less than 1 µM for the second.

`O=C(c1nc(NS(=O)(=O)c2ccc(C(F)(F)F)cc2Cl)ccc1Sc1ccc(S(=O)(=O)N2CCCCC2)cc1)C1CC1` [Compound 89, 2-Chloro-N-{6-cyclopropanecarbonyl-5-[4-(piperidine-1-sulfonyl)-phenylsulfanyl]-pyridin-2-yl}-4-trifluoromethyl-benzenesulfonamide] and `O=C(c1nc(NS(=O)(=O)c2ccc(C(F)(F)F)cc2Cl)ccc1Sc1ccc(S(=O)(=O)N2CCOCC2)cc1)C1CC1` [Compound 88, 2-Chloro-N-{6-cyclopropanecarbonyl-5-[4-(morpholine-4-sulfonyl)-phenylsulfanyl]-pyridin-2-yl}-4-trifluoromethyl-benzenesulfonamide] cannot be ordered by IC50: less than 1 µM for the first, less than 1 µM for the second.

`CCCCc1nc(NS(=O)(=O)c2ccc(C(F)(F)F)cc2Cl)ncc1Sc1ccc(S(=O)(=O)N2CCCCC2)cc1` [Compound 46, N-{4-Butyl-5-[4-(piperidine-1-sulfonyl)-phenylsulfanyl]-pyrimidin-2-yl}-2-chloro-4-trifluoromethyl-benzenesulfonamide] and `CCCCc1nc(NS(=O)(=O)c2ccc(Cl)cc2Cl)ncc1Sc1ccc(S(=O)(=O)N2CCCCC2)cc1` [Compound 43, N-{4-Butyl-5-[4-(piperidine-1-sulfonyl)-phenylsulfanyl]-pyrimidin-2-yl}-2,4-dichloro-benzenesulfonamide] cannot be ordered by IC50: less than 1 µM for the first, less than 1 µM for the second.

`CC(C)S(=O)(=O)c1ccc(Sc2ccc(NS(=O)(=O)c3ccc(Cl)cc3Cl)nc2C(=O)C2CC2)cc1` [Compound 107, 2,4-Dichloro-N-{6-cyclopropanecarbonyl-5-[4-(propane-2-sulfonyl)-phenylsulfanyl]-pyridin-2-yl}-benzenesulfonamide] and `CCCC(=O)c1nc(NS(=O)(=O)c2ccc(Cl)cc2Cl)ccc1Sc1ccc(S(=O)(=O)C(C)C)cc1` [Compound 106, N-{6-Butyryl-5-[4-(propane-2-sulfonyl)-phenylsulfanyl]-pyridin-2-yl}-2,4-dichloro-benzenesulfonamide] cannot be ordered by IC50: less than 1 µM for the first, less than 1 µM for the second.

`CCCCc1nc(NS(=O)(=O)c2ccc(Cl)cc2Cl)ccc1Sc1ccc(S(=O)(=O)N2CCCCC2)cc1` [Compound 122, N-{6-Butyl-5-[4-(piperidine-1-sulfonyl)-phenylsulfanyl]-pyridin-2-yl}-2,4-dichloro-benzenesulfonamide] and `CCCCc1nc(NS(=O)(=O)c2ccc(C(F)(F)F)cc2Cl)ccc1Sc1ccc(S(=O)(=O)N2CCCCC2)cc1` [Compound 123, N-{6-Butyl-5-[4-(piperidine-1-sulfonyl)-phenylsulfanyl]-pyridin-2-yl}-2-chloro-4-trifluoromethyl-benzenesulfonamide] cannot be ordered by IC50: less than 1 µM for the first, less than 1 µM for the second.

`CN(C)c1nc(NS(=O)(=O)c2ccc(Cl)cc2Cl)ncc1Sc1ccc2ccccc2c1` [Compound 26, 2,4-Dichloro-N-[4-dimethylamino-5-(naphthalen-2-ylsulfanyl) -pyrimidin-2-yl]-benzenesulfonamide] and `COc1nc(NS(=O)(=O)c2ccc(Cl)cc2Cl)ncc1Sc1ccc2ccccc2c1` [Compound 30, 2,4-Dichloro-N-[4-methoxy-5-(naphthalen-2-ylsulfanyl)-pyrimidin-2-yl]-benzenesulfonamide] cannot be ordered by IC50: less than 30 µM for the first, less than 10 µM for the second.

`CCN(CC)S(=O)(=O)c1ccc(Sc2ccc(NS(=O)(=O)c3ccc(C(F)(F)F)cc3Cl)nc2C(=O)C2CC2)cc1` [Compound 100, 2-Chloro-N-[6-cyclopropanecarbonyl-5-(4-diethylsulfamoyl-phenylsulfanyl)-pyridin-2-yl]-4-trifluoromethyl-benzenesulfonamide] and `CCCC(=O)c1nc(NS(=O)(=O)c2ccc(C(F)(F)F)cc2Cl)ccc1Sc1ccc(S(=O)(=O)N2CCOCC2)cc1` [Compound 87, N-{6-Butyryl-5-[4-(morpholine-4-sulfonyl)-phenylsulfanyl]-pyridin-2-yl}-2-chloro-4-trifluoromethyl-benzenesulfonamide] cannot be ordered by IC50: less than 1 µM for the first, less than 1 µM for the second.

`CCc1nc(NS(=O)(=O)c2ccc(C(F)(F)F)cc2Cl)ccc1Sc1ccc(S(=O)(=O)N2CCOCC2)cc1` [Compound 105, 2-Chloro-N-{6-ethyl-5-[4-(morpholine-4-sulfonyl) -phenylsulfanyl]-pyridin-2-yl}-4-trifluoromethyl-benzenesulfonamide] and `CC(C)CC(=O)c1nc(NS(=O)(=O)c2ccc(Cl)cc2Cl)ccc1Sc1ccc(S(=O)(=O)N2CCOCC2)cc1` [Compound 80, 2,4-Dichloro-N-{6-(3-methyl-butyryl)-5-[4-(morpholine-4-sulfonyl)-phenylsulfanyl]-pyridin-2-yl}-benzenesulfonamide] cannot be ordered by IC50: less than 10 µM for the first, less than 1 µM for the second.

`Cc1cc(S(=O)(=O)Nc2ccc(Sc3ccc(S(=O)(=O)N4CCCCC4)cc3)c(C)n2)c(Cl)cc1Cl` [Compound 61, 2,4-Dichloro-5-methyl-N-{6-methyl-5-[4-(piperidine-1-sulfonyl)-phenylsulfanyl]-pyridin-2-yl}-benzenesulfonamide] and `O=S(=O)(Nc1ccc(Sc2ccc(S(=O)(=O)N3CCCCC3)cc2)cn1)c1ccc(Cl)cc1Cl` [Compound 68, 2,4-Dichloro-N-{5-[4-(piperidine-1-sulfonyl)-phenylsulfanyl]-pyridin-2-yl}-benzenesulfonamide] cannot be ordered by IC50: less than 1 µM for the first, less than 1 µM for the second.

`CCCCc1cc(NS(=O)(=O)c2ccc(Cl)cc2Cl)nnc1Sc1ccc(S(=O)(=O)N2CCCCC2)cc1` [Compound 132, 3-(2′,4′-dichloro)phenylsulfonylamino-5-n-butyl-6-(4″-N-piperidinesulfonyl)phenylthiopyridazine] and `CCCCc1nc(NS(=O)(=O)c2ccc(Cl)cc2)ncc1Sc1ccc(S(=O)(=O)N2CCCCC2)cc1` [Compound 44, N-{4-Butyl-5-[4-(piperidine-1-sulfonyl)-phenylsulfanyl]-pyrimidin-2-yl}-4-chloro-benzenesulfonamide] cannot be ordered by IC50: less than 1 µM for the first, less than 1 µM for the second.

With `CCCNc1nc(NS(=O)(=O)c2ccc(Cl)cc2)ncc1Sc1ccc(S(=O)(=O)N2CCCCC2)cc1` [Compound 22, 4-Chloro-N-{5-[4-(piperidine-1-sulfonyl)-phenylsulfanyl]-4-propylamino-pyrimidin-2-yl}-benzenesulfonamide] the IC50 was less than 1 µM.
